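These data come from cells grown in 96-well plates and exposed to compound for 48 hours at five concentrations. GI50: concentration for 50% inhibition of growth.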 Calls of active or inactive are those of the source. Cut-off read from the data, not from the text of the source: active = GI50 up to about 1.1 µM and inactive = higher.
Experiments:
Test in all cases: NCI anticancer screen, dose series, 48 h
786-0 = test system: 786-0
A498 = test system: A498
A549 = test system: A549
ACHN = test system: ACHN
BT-549 = test system: BT-549
CAKI-1 = test system: CAKI-1
CCRF-CEM = test system: CCRF-CEM
COLO 205 = test system: COLO 205
DLD-1 = test system: DLD-1
DMS-114 = test system: DMS-114
DMS-273 = test system: DMS-273
DU-145 = test system: DU-145
EKVX = test system: EKVX
HCC 2998 = test system: HCC 2998
HCT-116 = test system: HCT-116
HCT-15 = test system: HCT-15
HL-60 = test system: HL-60
HOP-18 = test system: HOP-18
HOP-62 = test system: HOP-62
HOP-92 = test system: HOP-92
HT-29 = test system: HT-29
Hs-578T = test system: Hs-578T
IGROV-1 = test system: IGROV-1
K562 = test system: K562
KM-20L2 = test system: KM-20L2
KM12 = test system: KM12
LOX IMVI = test system: LOX IMVI
LXFL 529 = test system: LXFL 529
M14 = test system: M14
M19-MEL = test system: M19-MEL
MCF7 = test system: MCF7
MDA-MB-231 = test system: MDA-MB-231
MDA-MB-435 = test system: MDA-MB-435
MDA-N = test system: MDA-N
MOLT-4 = test system: MOLT-4
Malme-3M = test system: Malme-3M
NCI-H226 = test system: NCI-H226
NCI-H23 = test system: NCI-H23
NCI-H460 = test system: NCI-H460
NCI-H522 = test system: NCI-H522
NCI/ADR-RES = test system: NCI/ADR-RES
OVCAR-3 = test system: OVCAR-3
OVCAR-4 = test system: OVCAR-4
OVCAR-5 = test system: OVCAR-5
OVCAR-8 = test system: OVCAR-8
PC-3 = test system: PC-3
RPMI-8226 = test system: RPMI-8226
RXF 393 = test system: RXF 393
SF-268 = test system: SF-268
SF-295 = test system: SF-295
SF-539 = test system: SF-539
SK-MEL-28 = test system: SK-MEL-28
SK-MEL-2 = test system: SK-MEL-2
SK-MEL-5 = test system: SK-MEL-5
SK-OV-3 = test system: SK-OV-3
SN12C = test system: SN12C
SNB-19 = test system: SNB-19
SNB-75 = test system: SNB-75
SNB-78 = test system: SNB-78
SR = test system: SR
SW-620 = test system: SW-620
T47D = test system: T47D
TK-10 = test system: TK-10
U-251 = test system: U-251
UACC-257 = test system: UACC-257
UACC-62 = test system: UACC-62
UO-31 = test system: UO-31
XF498 = test system: XF498

With `CS(=O)(=O)OCCN(CCOS(C)(=O)=O)c1ccc(C=O)cc1` the GI50 (786-0) was 365 nM (active), the GI50 (A498) was 1.74 µM (inactive) and the GI50 (A549) was 2.89 µM (inactive). For the same compound, the GI50 (ACHN) was 0.346 µM (active), the GI50 (BT-549) was 13 µM (inactive) and the GI50 (CAKI-1) was 0.427 µM (active). The GI50 (CCRF-CEM) was 0.897 µM (active), the GI50 (COLO 205) was 1.81 µM (inactive) and the GI50 (DLD-1) was 18.5 µM (inactive). For the same compound, the GI50 (DMS-114) was 8.05 µM (inactive), the GI50 (DMS-273) was 0.314 µM (active) and the GI50 (DU-145) was 505 nM (active). For the same compound, the GI50 (EKVX) was 7.05 µM (inactive), the GI50 (HCC 2998) was 2.17 µM (inactive) and the GI50 (HCT-116) was 31.4 µM (inactive). The GI50 (HCT-15) was 9.84 µM, the GI50 (HL-60) was 2.07 µM (inactive) and the GI50 (HOP-18) was 9.16 µM (inactive). For the same compound, the GI50 (HOP-62) was 1.43 µM (inactive), the GI50 (HOP-92) was 12.5 µM (inactive) and the GI50 (HT-29) was 3.96 µM (inactive). For the same compound, the GI50 (Hs-578T) was 14.3 µM (inactive), the GI50 (IGROV-1) was 12.8 µM (inactive) and the GI50 (K562) was 20.1 µM (inactive). For the same compound, the GI50 (KM-20L2) was 3.28 µM (inactive), the GI50 (KM12) was 10.4 µM (inactive) and the GI50 (LOX IMVI) was 5.08 µM (inactive). For the same compound, the GI50 (LXFL 529) was 18.1 µM (inactive), the GI50 (M14) was 4.55 µM (inactive) and the GI50 (M19-MEL) was 12.6 µM (inactive). The GI50 (MCF7) was 4.7 µM (inactive), the GI50 (MDA-MB-231) was 21.4 µM (inactive) and the GI50 (MDA-MB-435) was 10.3 µM (inactive). The GI50 (MDA-N) was 8.95 µM (inactive), the GI50 (MOLT-4) was 0.233 µM (active) and the GI50 (Malme-3M) was 8.77 µM (inactive). For the same compound, the GI50 (NCI-H226) was 1.84 µM (inactive), the GI50 (NCI-H23) was 1.63 µM (inactive) and the GI50 (NCI-H460) was 51.8 nM (active). The GI50 (NCI-H522) was 0.195 µM (active), the GI50 (NCI/ADR-RES) was 7.1 µM (inactive) and the GI50 (OVCAR-3) was 5.12 µM (inactive). For the same compound, the GI50 (OVCAR-4) was 13 µM (inactive), the GI50 (OVCAR-5) was 3.5 µM (inactive) and the GI50 (OVCAR-8) was 7.35 µM (inactive). For the same compound, the GI50 (PC-3) was 19.4 µM (inactive), the GI50 (RPMI-8226) was 8.63 µM (inactive) and the GI50 (RXF 393) was 0.432 µM (active). For the same compound, the GI50 (SF-268) was 2.95 µM (inactive), the GI50 (SF-295) was 0.774 µM (active) and the GI50 (SF-539) was 2.18 µM (inactive). For the same compound, the GI50 (SK-MEL-28) was 17.1 µM (inactive), the GI50 (SK-MEL-2) was 17.1 µM (inactive) and the GI50 (SK-MEL-5) was 6.27 µM (inactive). The GI50 (SK-OV-3) was 1.14 µM (inactive), the GI50 (SN12C) was 3.68 µM (inactive) and the GI50 (SNB-19) was 4.22 µM (inactive). The GI50 (SNB-75) was 1.87 µM (inactive), the GI50 (SNB-78) was 27.2 µM (inactive) and the GI50 (SR) was 0.236 µM (active). The GI50 (SW-620) was 14.9 µM (inactive), the GI50 (T47D) was 5.92 µM (inactive) and the GI50 (TK-10) was 2.94 µM (inactive). For the same compound, the GI50 (U-251) was 8.07 µM (inactive), the GI50 (UACC-257) was 8.32 µM (inactive) and the GI50 (UACC-62) was 1.27 µM (inactive). The GI50 (UO-31) was 1.11 µM (active) and the GI50 (XF498) was 1.97 µM (inactive).

In the case of `N#CCCN(CCC#N)c1ccc(/C=C(\NC(=O)c2cc([N+](=O)[O-])ccc2Cl)C(=O)Nc2ccccc2)cc1`, the GI50 (A549) is reported as > 100 µM (inactive), the GI50 (ACHN) is reported as 12.2 µM (inactive) and the GI50 (CAKI-1) is reported as 62.1 µM (inactive). The GI50 (CCRF-CEM) was 5.87 µM (inactive), the GI50 (COLO 205) was 67.9 µM (inactive) and the GI50 (DLD-1) was 18.5 µM (inactive). For the same compound, the GI50 (DMS-114) was 55 µM (inactive), the GI50 (DMS-273) was 54.2 µM (inactive) and the GI50 (EKVX) was > 100 µM (inactive). For the same compound, the GI50 (HCT-116) was 78.7 µM (inactive), the GI50 (HCT-15) was 4.55 µM and the GI50 (HOP-18) was > 100 µM (inactive). For the same compound, the GI50 (HOP-62) was 45.2 µM (inactive), the GI50 (HOP-92) was > 100 µM (inactive) and the GI50 (IGROV-1) was > 100 µM (inactive). For the same compound, the GI50 (K562) was 6.82 µM (inactive), the GI50 (KM-20L2) was > 100 µM (inactive) and the GI50 (KM12) was > 100 µM (inactive). For the same compound, the GI50 (LOX IMVI) was 21.4 µM (inactive), the GI50 (LXFL 529) was 10.5 µM (inactive) and the GI50 (M19-MEL) was > 100 µM (inactive). For the same compound, the GI50 (MOLT-4) was 32.2 µM (inactive), the GI50 (NCI-H226) was 64.9 µM (inactive) and the GI50 (NCI-H23) was > 100 µM (inactive). For the same compound, the GI50 (NCI-H522) was 44.2 µM (inactive), the GI50 (OVCAR-3) was > 100 µM (inactive) and the GI50 (OVCAR-4) was > 100 µM (inactive). For the same compound, the GI50 (OVCAR-5) was 99.8 µM (inactive), the GI50 (OVCAR-8) was 83.9 µM (inactive) and the GI50 (RPMI-8226) was > 100 µM (inactive). For the same compound, the GI50 (RXF 393) was > 100 µM (inactive), the GI50 (SF-268) was 30.8 µM (inactive) and the GI50 (SF-295) was 64.6 µM (inactive). For the same compound, the GI50 (SF-539) was 49.7 µM (inactive), the GI50 (SK-MEL-28) was > 100 µM (inactive) and the GI50 (SK-MEL-2) was > 100 µM (inactive). The GI50 (SK-MEL-5) was > 100 µM (inactive), the GI50 (SK-OV-3) was > 100 µM (inactive) and the GI50 (SN12C) was > 100 µM (inactive). For the same compound, the GI50 (SNB-19) was > 100 µM (inactive), the GI50 (SNB-78) was > 100 µM (inactive) and the GI50 (SR) was 36.3 µM (inactive). The GI50 (TK-10) was 48 µM (inactive), the GI50 (U-251) was > 100 µM (inactive) and the GI50 (UACC-62) was 4.52 µM (inactive). The GI50 (UO-31) was > 100 µM (inactive) and the GI50 (XF498) was > 100 µM (inactive).
